{
  "source": "BindingDB's records for doi:10.1021/jm970499g",
  "about": "(Novartis Institute For Medical Sciences, 1998)",
  "data": [
    {"biological_target": "Substance-P receptor (rabbit)", "assay": "In vitro binding affinity towards Tachykinin receptor 1 to displace [3H][Sar9Met(O2)11]-SP (1 nM) binding to rabbit whole brain membranes", "units": {"Ki": "nM"}, "values": [
      {"smiles": "COc1ccccc1CNC(=S)N1CCC[C@H]1C(=O)NC(c1ccccc1)c1ccccc1", "note": "[(S)-1-(2-Methoxy-benzylthiocarbamoyl)-pyrrolidine-2-carboxylic acid benzhydryl-amide]", "Ki": 330},
      {"smiles": "O=C(NC(c1ccccc1)c1ccccc1)[C@@H]1CCCN1C(=S)NCc1ccccc1Cl", "note": "[(S)-1-(2-Chloro-benzylthiocarbamoyl)-pyrrolidine-2-carboxylic acid benzhydryl-amide]", "Ki": 170},
      {"smiles": "O=C(NC(c1ccccc1)c1ccccc1)[C@@H]1CCCN1C(=S)NCc1ccccc1F", "note": "[(S)-1-(2-Fluoro-benzylthiocarbamoyl)-pyrrolidine-2-carboxylic acid benzhydryl-amide]", "Ki": 1270},
      {"smiles": "O=C(NC(c1ccccc1)c1ccccc1)[C@@H]1CCCN1C(=S)NCc1ccccc1Br", "note": "[(S)-1-(2-Bromo-benzylthiocarbamoyl)-pyrrolidine-2-carboxylic acid benzhydryl-amide]", "Ki": 170},
      {"smiles": "COc1ccccc1CNC(=S)N1CCC[C@H]1C(=O)N[C@@H](Cc1ccccc1)C(=O)N(C)Cc1ccccc1", "Ki": 260},
      {"smiles": "COc1ccccc1CNC(=S)N1CCC[C@H]1C(=O)N[C@H](Cc1ccccc1)C(=O)N(C)Cc1ccccc1", "Ki": 1280}
    ]},
    {"biological_target": "Substance-P receptor (rabbit)", "assay": "In vitro binding affinity towards Tachykinin receptor 1 to displace [3H][Sar9Met(O2)11]-SP (1 nM) binding to rabbit whole brain membranes", "remark": "another data set of the same source", "units": {"IC50": "nM"}, "values": [
      {"smiles": "COc1ccccc1CNC(=NC#N)N1CCC[C@H]1C(=O)NC(c1ccccc1)c1ccccc1", "note": "[1-[N-(2-Methoxy-benzyl)-N'-cyano-carbamimidoyl]-pyrrolidine-2-carboxylic acid benzhydryl-amide]", "IC50": "> 50000"},
      {"smiles": "COc1ccccc1CNC(=S)N1CCC[C@H]1C(=O)N(Cc1ccccc1)Cc1ccccc1", "note": "[(S)-1-(2-Methoxy-benzylthiocarbamoyl)-pyrrolidine-2-carboxylic acid dibenzylamide]", "IC50": "> 50000"},
      {"smiles": "O=C(NC(c1ccccc1)c1ccccc1)[C@@H]1CCCN1C(=S)NCc1ccccc1", "note": "[(S)-1-Benzylthiocarbamoyl-pyrrolidine-2-carboxylic acid benzhydryl-amide]", "IC50": "> 5000"},
      {"smiles": "Nc1ccccc1CNC(=S)N1CCC[C@H]1C(=O)NC(c1ccccc1)c1ccccc1", "note": "[(S)-1-(2-Amino-benzylthiocarbamoyl)-pyrrolidine-2-carboxylic acid benzhydryl-amide]", "IC50": "> 50000"},
      {"smiles": "COc1ccccc1COC(=O)N1CCC[C@H]1C(=O)NC(c1ccccc1)c1ccccc1", "note": "[(S)-2-(Benzhydryl-carbamoyl)-pyrrolidine-1-carboxylic acid 2-methoxy-benzyl ester]", "IC50": "> 50000"},
      {"smiles": "COc1ccccc1CNC(=S)N1CCC[C@H]1C(=O)NCC(c1ccccc1)c1ccccc1", "note": "[(S)-1-(2-Methoxy-benzylthiocarbamoyl)-pyrrolidine-2-carboxylic acid (2,2-diphenyl-ethyl)-amide]", "IC50": "> 5000"},
      {"smiles": "COc1ccccc1CNC(=S)N1CCC[C@@H]1C(=O)NC(c1ccccc1)c1ccccc1", "note": "[(R)-1-(2-Methoxy-benzylthiocarbamoyl)-pyrrolidine-2-carboxylic acid benzhydryl-amide]", "IC50": "> 5000"}
    ]}
  ]
}
